These are literature values, as cited in patent publication US10047075B2, “Pyridines and pyrimidines and use thereof” (Purdue Pharma L.P., priority 2014, dated 2018).

Targets include Nav1.3 (Homo sapiens, UniProt Q9NY46); Nav1.6 (Homo sapiens, UniProt Q9UQD0); Nav1.8 (Homo sapiens, UniProt Q9Y5Y9); Nav1.9 (Homo sapiens, UniProt Q9UI33); Nav1.1 (Homo sapiens, UniProt P35498); Nav1.2 (Homo sapiens, UniProt Q99250).
Holding throughout (conditions): read-out: TTX IC50; cited from earlier work

Sequence of Nav1.2 (Q99250 whole entry, looked up): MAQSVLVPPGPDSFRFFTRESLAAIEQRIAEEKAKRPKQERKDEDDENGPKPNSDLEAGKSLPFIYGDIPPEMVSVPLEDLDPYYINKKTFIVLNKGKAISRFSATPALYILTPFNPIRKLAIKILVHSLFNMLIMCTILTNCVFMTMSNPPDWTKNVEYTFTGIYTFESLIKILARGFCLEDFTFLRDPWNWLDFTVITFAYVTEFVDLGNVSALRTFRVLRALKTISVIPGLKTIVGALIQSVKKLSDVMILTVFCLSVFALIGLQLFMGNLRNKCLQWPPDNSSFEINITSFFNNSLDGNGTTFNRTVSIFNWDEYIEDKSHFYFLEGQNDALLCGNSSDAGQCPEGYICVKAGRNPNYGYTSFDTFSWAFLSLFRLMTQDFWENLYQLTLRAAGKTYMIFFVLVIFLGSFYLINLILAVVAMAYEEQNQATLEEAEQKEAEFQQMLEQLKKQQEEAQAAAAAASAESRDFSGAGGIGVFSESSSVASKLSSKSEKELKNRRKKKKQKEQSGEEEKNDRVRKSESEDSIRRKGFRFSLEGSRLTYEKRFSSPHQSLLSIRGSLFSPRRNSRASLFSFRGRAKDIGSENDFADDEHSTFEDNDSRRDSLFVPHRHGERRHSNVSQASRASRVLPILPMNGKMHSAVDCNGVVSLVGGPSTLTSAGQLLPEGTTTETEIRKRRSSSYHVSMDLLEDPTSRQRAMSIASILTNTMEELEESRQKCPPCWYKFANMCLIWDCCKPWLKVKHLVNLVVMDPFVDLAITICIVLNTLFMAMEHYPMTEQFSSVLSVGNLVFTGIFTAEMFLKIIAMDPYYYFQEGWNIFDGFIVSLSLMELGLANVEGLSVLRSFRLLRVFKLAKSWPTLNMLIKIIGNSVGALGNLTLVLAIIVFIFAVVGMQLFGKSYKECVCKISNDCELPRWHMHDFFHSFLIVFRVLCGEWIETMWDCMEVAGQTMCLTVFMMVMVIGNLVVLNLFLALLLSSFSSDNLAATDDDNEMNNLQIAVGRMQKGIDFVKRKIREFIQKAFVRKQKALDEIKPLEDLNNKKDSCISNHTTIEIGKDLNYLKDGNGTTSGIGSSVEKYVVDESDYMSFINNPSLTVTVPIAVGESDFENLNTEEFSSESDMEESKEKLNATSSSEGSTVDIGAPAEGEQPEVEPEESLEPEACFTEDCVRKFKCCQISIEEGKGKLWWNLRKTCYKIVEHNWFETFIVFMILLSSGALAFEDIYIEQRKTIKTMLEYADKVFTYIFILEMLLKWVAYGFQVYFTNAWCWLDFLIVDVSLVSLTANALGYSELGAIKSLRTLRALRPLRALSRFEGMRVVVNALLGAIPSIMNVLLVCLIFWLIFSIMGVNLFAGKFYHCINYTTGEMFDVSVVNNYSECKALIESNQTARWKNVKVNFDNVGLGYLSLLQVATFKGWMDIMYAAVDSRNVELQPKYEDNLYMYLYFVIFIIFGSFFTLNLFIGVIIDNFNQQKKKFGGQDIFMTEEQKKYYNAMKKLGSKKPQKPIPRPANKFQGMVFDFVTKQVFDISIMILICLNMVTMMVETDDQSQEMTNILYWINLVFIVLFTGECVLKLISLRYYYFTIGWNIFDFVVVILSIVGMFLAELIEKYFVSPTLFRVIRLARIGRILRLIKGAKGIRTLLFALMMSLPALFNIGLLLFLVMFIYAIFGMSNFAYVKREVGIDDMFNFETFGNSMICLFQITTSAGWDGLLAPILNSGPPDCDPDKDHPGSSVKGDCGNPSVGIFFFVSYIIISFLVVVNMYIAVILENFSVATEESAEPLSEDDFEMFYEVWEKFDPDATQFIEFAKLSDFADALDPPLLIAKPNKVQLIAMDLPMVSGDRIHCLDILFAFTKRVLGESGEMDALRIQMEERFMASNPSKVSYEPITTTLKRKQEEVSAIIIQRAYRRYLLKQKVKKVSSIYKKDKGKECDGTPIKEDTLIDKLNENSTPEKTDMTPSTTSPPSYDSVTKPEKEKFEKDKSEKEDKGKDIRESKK
Sequence of Nav1.6 (Q9UQD0 whole entry, looked up): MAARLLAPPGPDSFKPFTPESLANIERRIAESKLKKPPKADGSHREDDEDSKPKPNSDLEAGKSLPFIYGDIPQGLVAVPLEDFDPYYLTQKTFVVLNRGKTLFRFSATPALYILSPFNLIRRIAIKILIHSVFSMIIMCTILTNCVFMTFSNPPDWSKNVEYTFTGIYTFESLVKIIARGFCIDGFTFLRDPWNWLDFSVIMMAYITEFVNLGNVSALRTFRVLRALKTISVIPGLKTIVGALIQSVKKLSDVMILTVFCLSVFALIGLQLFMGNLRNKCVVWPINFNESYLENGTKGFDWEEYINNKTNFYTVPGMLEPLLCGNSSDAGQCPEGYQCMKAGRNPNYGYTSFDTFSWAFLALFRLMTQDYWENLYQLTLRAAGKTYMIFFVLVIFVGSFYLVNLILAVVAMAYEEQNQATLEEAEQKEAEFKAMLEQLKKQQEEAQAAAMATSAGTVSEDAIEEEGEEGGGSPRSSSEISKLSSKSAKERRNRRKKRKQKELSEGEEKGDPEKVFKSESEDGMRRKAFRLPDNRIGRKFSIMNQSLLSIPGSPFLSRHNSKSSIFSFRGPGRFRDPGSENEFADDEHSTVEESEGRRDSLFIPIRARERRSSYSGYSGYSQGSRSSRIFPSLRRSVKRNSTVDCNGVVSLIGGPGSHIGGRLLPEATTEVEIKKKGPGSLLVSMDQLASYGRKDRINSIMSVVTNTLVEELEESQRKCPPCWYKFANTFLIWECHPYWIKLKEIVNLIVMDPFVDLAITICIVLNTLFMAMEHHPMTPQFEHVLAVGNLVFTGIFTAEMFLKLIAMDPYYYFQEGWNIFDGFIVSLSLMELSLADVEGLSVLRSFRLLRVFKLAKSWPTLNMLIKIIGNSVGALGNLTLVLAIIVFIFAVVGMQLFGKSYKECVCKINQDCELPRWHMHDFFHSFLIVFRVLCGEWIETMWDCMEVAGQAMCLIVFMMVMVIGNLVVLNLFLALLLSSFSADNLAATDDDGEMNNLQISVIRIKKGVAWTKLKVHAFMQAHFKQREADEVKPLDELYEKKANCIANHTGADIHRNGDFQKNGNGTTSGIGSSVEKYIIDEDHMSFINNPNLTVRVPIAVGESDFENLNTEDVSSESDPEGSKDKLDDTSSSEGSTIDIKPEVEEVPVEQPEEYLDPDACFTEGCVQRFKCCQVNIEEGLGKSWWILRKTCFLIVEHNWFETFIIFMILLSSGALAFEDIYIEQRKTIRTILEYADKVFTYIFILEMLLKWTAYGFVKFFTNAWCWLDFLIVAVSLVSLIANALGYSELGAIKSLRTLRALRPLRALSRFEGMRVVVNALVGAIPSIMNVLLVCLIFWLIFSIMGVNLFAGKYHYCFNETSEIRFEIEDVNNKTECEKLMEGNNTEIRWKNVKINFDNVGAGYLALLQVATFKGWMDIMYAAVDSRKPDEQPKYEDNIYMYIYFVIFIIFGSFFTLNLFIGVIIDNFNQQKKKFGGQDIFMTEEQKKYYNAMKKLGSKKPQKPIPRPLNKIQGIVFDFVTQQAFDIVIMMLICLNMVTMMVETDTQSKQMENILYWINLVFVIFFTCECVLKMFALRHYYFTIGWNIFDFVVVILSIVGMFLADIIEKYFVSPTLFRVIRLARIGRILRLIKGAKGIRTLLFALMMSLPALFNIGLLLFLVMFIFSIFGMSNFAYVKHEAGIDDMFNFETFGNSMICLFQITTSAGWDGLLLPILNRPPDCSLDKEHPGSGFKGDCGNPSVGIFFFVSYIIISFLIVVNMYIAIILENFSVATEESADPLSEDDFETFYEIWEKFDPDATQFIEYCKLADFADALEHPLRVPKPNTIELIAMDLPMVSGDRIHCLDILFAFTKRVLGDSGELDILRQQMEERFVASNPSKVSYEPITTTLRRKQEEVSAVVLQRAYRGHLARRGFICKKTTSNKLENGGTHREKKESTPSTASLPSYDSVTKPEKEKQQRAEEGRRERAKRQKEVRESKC

With `NC1=N[C@H](O)[C@H]2[C@H]3O[C@]4(O)O[C@@H]([C@@H](O)[C@@]2(N1)[C@@H]4O)[C@]3(O)CO` [TTX, tetrodotoxin], the IC50 on Nav1.3 is 15 nM; at Nav1.6 it was 6 nM; on Nav1.8 it was 50000 nM; on Nav1.9, 1000 nM; at Nav1.1, 10 nM; at Nav1.2, 10 nM.

By IC50 is commonly meant the concentration needed to halve the response being measured.
